Laboratory results taken from patent US11344571B2, “NO containing compositions” (University Court of the University of St. Andrews, priority 2015, dated 2022).
Counter-ions that a name gives are not always drawn.

Legend:
[1] = NO release triggered by constant flow of humid nitrogen gas (11% RH), chemiluminescence nitric oxide analyser; assay type: physicochemical; conditions: humid nitrogen 11% RH; for total nitric oxide released: in 19 hr
Excerpt: The release of NO from the sample was first triggered by passing a constant flow of humid nitrogen gas (11% RH) over it. The amount of NO released over time was detected using a Sievers NOA 280i chemiluminescence nitric oxide analyser until the emission of NO reached a level lower than 20 ppb.

[2] = NO release triggered by UV light (300-400 nm), chemiluminescence analysis
Protocol: After the NO release was completed the sample was kept on the bench at room temperature, exposed to air and humidity for over 48 hr.
The release of NO over time was recorded using the same analyser described above.

[3] = NO release from NO-loaded sample submersed in deionized water, chemiluminescence analysis; assay type: physicochemical
Protocol: The NO-loaded sample was submersed under 5 ml of deionized water in a sealed chamber connected to an NO analyser. A constant flow of nitrogen was bubbled through the suspension while measuring the concentration of NO present in the chamber atmosphere.
The release of NO from the sample triggered by the water was measured in ppm and ppb over time until the level of NO dropped below 20 ppb. The initial burst release of NO reached 40 ppm. The sample released up to 0.035 mmol/g of nitric oxide in 7 hrs (FIG. 5A).

[4] = Gravimetric NO adsorption/desorption isotherms at 298K; assay type: physicochemical
Protocol: The nitric oxide adsorption/desorption profiles for two further chlorhexidine diacetate samples (25 mg) were collected using a bespoke gravimetric adsorption system. Each sample was exposed to high vacuum at a pressure of 1×10^−4 mbar overnight until no further mass loss was observed. The samples were cooled to 298K using a water bath (temperature accuracy of 0.02K).
For one sample, shown in the outer plot of FIGS. 2A-2B, NO was introduced in increasing increments. After each dose of NO, the mass of the sample was allowed to stabilise (indicating completion of adsorption) before the next addition was made. This process was continued until the introduced pressure of NO was equal to atmospheric pressure. The second sample was exposed to one atmosphere of NO in a single step, and its mass allowed to equilibrate. Data is shown in the inner plot of FIGS. 2A-2B. The desorption profiles of both samples, shown in FIGS. 2A-2B, were measured by reducing the pressure in increments to a final value of 2×10^−2 mbar.

## O=C(O)c1cn(C2CC2)c2cc(N3CCNCC3)c(F)cc2c1=O [ciprofloxacin]
[1]
  duration of initial burst release of NO on humidity: a couple of minutes

## NS(=O)(=O)c1cc(C(=O)O)c(NCc2ccco2)cc1Cl [furosemide]
[1]
  initial burst of release of NO (peak): 512 ppm
  total nitric oxide released: up to 0.042 mmol/g

## N=C(NCCCCCCNC(=N)NC(=N)Nc1ccc(Cl)cc1)NC(=N)Nc1ccc(Cl)cc1 [chlorhexidine dihydrochloride]
[1]
  duration of initial burst release of NO on humidity: a couple of minutes
[2]; after 2 days on bench in humid air
  UV-triggered burst of NO (peak): up to 150 ppb
[2]; over 1 hr, after 2 days in humid air
  NO level to which UV-triggered burst dropped: 75 ppb

## N=C(NCCCCCCNC(=N)NC(=N)Nc1ccc(Cl)cc1)NC(=N)Nc1ccc(Cl)cc1 [chlorhexidine diacetate]
[1]
  initial burst of release of NO (peak): 512 PPM
  total nitric oxide released: up to 0.042 mmol/g
[1]; in 18 hrs
  total NO release: 0.03 mmol/g
[3]; 100 mg under 5 ml deionized water, nitrogen bubbled
  initial burst release of NO (peak): 40 ppm
[3]; in water, in 7 hrs
  total nitric oxide released: up to 0.035 mmol/g
[2]; burst from 30 ppb, after over 48 hr on bench in air and humidity
  UV-triggered immediate burst of NO release: 105 ppb
[2]; continuous exposure about 5 mins, after over 48 hr storage in air
  maximum NO on continuous UV exposure: around 120 ppb
[2]; for more than 4 hrs
  NO release level sustained under continuous UV exposure: over 70 ppb
[2]; sample in water, immediately after water-triggered release, about 10 minutes
  maximum NO on continuous UV exposure: around 1000 ppb
[4]; NO pressure up to atmospheric
  maximum NO adsorbed, molecules of NO per molecule of chlorhexidine: 0.55 molecules of NO per molecule of chlorhexidine
[4]; NO pressure up to atmospheric, gravimetric
  maximum NO adsorbed: ~0.9 mmole of NO per gram
[4]; desorption to 2x10^-2 mbar
  level of stored NO after reapplication of vacuum, molecules per molecule of chlorhexidine: circa 0.25 molecules per molecule of chlorhexidine
[4]; desorption to 2x10^-2 mbar, both samples
  level of stored NO after reapplication of vacuum: ~0.4 mmole per gram
